This assay deals with human CXCR3-A receptor (Homo sapiens (Human), UniProt P49682). Briefly: 125I-CXCL10 competition radioligand binding assay. The note with it: displacement of 125I-CXCL10 from membranes of CHO cells expressing human recombinant CXCR3-A. The procedure, abridged:
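Membranes from a recombinant cell line expressing human CXCR3-A (10-20 μg protein) were incubated with 125I-CXCL10 and test compound for 60 min at 25° C, then filtered onto PEI-soaked GF/B filters and gamma-counted. IC50 and Hill slope came from four-parameter nonlinear fitting of competition curves.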
Sequence of human CXCR3-A receptor (P49682 whole entry): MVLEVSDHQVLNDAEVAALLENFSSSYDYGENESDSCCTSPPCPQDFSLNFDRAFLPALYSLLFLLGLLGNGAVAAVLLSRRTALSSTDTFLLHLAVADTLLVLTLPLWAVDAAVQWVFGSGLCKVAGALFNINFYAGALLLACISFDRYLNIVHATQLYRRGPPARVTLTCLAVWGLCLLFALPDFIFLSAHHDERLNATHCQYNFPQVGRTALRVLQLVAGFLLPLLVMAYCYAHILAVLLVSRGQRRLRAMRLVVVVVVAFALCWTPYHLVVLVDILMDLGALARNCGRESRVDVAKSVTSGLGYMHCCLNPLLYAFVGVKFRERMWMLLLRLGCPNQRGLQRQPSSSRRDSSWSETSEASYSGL
For orientation: IC50 means the concentration at which inhibition is half-maximal. In the case of `CC(c1ccc2c(c1)CCO2)N(Cc1ccc(OCCN2C(=O)CCC2=O)c(Cl)c1)C[C@H]1CC[C@H](C(=O)O)CC1` (stereo partly drawn) [Example 16, trans-4-({{3-Chloro-4-[2-(2,5-dioxo-pyrrolidin-1-yl)-ethoxy]-benzyl}-[1-(2,3-dihydro-benzofuran-5-yl)-ethyl]-amino}-methyl)-cyclohexanecarboxylic acid], the concentration for half-maximal inhibition (IC50) was 35 nM.

On to `COc1cc(CN(C[C@H]2CC[C@H](C(=O)O)CC2)C(C)c2ccc(Cl)c(C)c2)ccc1OCCN1C(=O)CCC1=O` (stereo partly drawn) [Example 25, trans-4-[([1-(4-Chloro-3-methyl-phenyl)-ethyl]-{4-[2-(2,5-dioxo-pyrrolidin-1-yl)-ethoxy]-3-methoxy-benzyl}-amino)-methyl]-cyclohexanecarboxylic acid], for which the 50% inhibitory concentration (IC50) came out at 25 nM.

Take `COc1cc(CN(C[C@H]2CC[C@H](C(=O)O)CC2)C2CCc3cc(Cl)c(F)cc32)ccc1OCCN1C(=O)CCC1=O` (stereo partly drawn) [Example 98, trans-4-[((5-Chloro-6-fluoro-indan-1-yl)-{4-[2-(2,5-dioxo-pyrrolidin-1-yl)-ethoxy]-3-methoxy-benzyl}-amino)-methyl]-cyclohexanecarboxylic acid]: the 50% inhibitory concentration (IC50) is 155 nM.

With `COc1cc(CN(C[C@H]2CC[C@H](C(=O)O)CC2)C2CCc3c2ccc(Cl)c3C)ccc1OCCN1C(=O)CCC1=O` (stereo partly drawn) [Example 43, trans-4-[((5-Chloro-4-methyl-indan-1-yl)-{4-[2-(2,5-dioxo-pyrrolidin-1-yl)-ethoxy]-3-methoxy-benzyl}-amino)-methyl]-cyclohexanecarboxylic acid], the IC50 worked out at 68 nM.

As for `COc1cc(CN(C[C@H]2CC[C@H](C(=O)O)CC2)C(C)c2ccc3c(c2)CCO3)ccc1OCCN1C(=O)CCCC1=O` (stereo partly drawn) [Example 38, trans-4-[([1-(2,3-Dihydro-benzofuran-5-yl)-ethyl]-{4-[2-(2,6-dioxo-piperidin-1-yl)-ethoxy]-3-methoxy-benzyl}-amino)-methyl]-cyclohexanecarboxylic acid], the 50% inhibitory concentration (IC50) was 163 nM.

These data come from patent publication US9073853B2, “Cycloalkane carboxylic acid derivatives as CXCR3 receptor antagonists” (Sanofi, priority 2011, dated 2015).
